Laboratory results taken from ChEMBL document CHEMBL5316318, “Structural Modification and Pharmacological Evaluation of Substituted Quinoline-5,8-diones as Potent NSD2 Inhibitors” (J Med Chem, 2023).

What was measured:
[1] = target: T1, Histone-lysine N-methyltransferase NSD2 (Homo sapiens, UniProt O96028); test: Inhibition of recombinant human NSD2 (941 to 1240 residues) using SAM as substrate incubated for 3 hrs by AlphaLISA assay
T1 sequence (O96028 whole entry): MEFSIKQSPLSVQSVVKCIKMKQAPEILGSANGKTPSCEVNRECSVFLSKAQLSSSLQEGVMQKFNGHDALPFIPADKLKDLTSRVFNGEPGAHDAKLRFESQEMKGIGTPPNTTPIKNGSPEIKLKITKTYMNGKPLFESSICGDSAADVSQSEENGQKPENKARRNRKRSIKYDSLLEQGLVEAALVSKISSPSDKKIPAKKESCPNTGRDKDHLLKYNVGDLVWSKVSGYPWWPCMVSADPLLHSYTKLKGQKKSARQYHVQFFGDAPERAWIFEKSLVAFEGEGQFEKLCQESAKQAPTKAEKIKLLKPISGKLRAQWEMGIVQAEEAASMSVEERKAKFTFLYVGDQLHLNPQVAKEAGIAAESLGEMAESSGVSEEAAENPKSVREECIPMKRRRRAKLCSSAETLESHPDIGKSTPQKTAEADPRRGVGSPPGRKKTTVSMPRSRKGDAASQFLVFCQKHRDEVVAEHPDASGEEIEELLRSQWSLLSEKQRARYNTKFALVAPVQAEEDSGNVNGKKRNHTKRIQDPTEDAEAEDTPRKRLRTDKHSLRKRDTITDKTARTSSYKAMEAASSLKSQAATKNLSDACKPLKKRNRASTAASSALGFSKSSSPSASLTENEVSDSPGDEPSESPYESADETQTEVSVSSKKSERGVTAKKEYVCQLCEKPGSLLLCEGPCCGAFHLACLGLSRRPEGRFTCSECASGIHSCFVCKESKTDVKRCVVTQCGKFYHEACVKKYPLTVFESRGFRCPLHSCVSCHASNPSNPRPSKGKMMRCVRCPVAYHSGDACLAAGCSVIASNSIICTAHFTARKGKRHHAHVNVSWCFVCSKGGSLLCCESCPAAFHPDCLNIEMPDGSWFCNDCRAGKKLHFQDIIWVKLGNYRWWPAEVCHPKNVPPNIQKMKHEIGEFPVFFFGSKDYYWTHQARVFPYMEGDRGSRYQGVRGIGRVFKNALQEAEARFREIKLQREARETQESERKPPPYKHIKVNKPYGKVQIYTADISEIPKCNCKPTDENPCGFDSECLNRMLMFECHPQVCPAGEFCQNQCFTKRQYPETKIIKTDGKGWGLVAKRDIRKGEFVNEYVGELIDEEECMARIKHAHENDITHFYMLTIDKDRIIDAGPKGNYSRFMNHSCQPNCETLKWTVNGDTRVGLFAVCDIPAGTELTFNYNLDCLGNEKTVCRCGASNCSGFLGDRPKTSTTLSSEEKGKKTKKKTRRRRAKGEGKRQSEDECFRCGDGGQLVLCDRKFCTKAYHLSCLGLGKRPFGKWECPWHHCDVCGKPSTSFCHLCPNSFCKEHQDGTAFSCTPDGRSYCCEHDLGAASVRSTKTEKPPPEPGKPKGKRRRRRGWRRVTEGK

KMS-11 = test: Antiproliferative activity against human KMS-11 cells assessed as inhibition of cell growth incubated for 6 days by CCK-8 assay; format: functional, cell-based; settings: KMS-11, 144 h
[2] = Apparent permeability coefficient, Papp in MDCK cells; format: ADME, cell-based, Canis lupus familiaris; settings: dog
[3] = Cmax in ICR mouse at 3 mg/kg, po measured for 24 hrs by LC-MS/MS analysis; format: ADME, organism-based; parameters: dose 3 mg/kg, time 24 hrs, route po; settings: in vivo
[4] = target: T1, Histone-lysine N-methyltransferase NSD2; test: Inhibition of N-terminal polyhistidine tagged human recombinant NSD2 SET domain (934 to 1241 residues) expressed in Escherichia coli using SAM as substrate preincubated for 30 mins followed by substrate addition and measured after 15 mins by MTase-Glo assay
[5] = Half life in ICR mouse at 3 mg/kg, po measured for 24 hrs by LC-MS/MS analysis; format: ADME, organism-based; settings: in vivo
[6] = AUClast in ICR mouse at 3 mg/kg, po measured for 24 hrs by LC-MS/MS analysis; format: ADME, organism-based; parameters: dose 3 mg/kg, time 24 hrs, route po; settings: in vivo
[7] = Tmax in ICR mouse at 3 mg/kg, po measured for 24 hrs by LC-MS/MS analysis; format: ADME, organism-based; settings: in vivo
[8] = target: Histone-lysine N-methyltransferase, H3 lysine-36 specific (Homo sapiens, UniProt Q96L73); test: Inhibition of NSD1 (unknown origin)
[9] = target: Histone-lysine N-methyltransferase NSD3 (Homo sapiens, UniProt Q9BZ95); test: Inhibition of NSD3 (unknown origin)
[10] = target: T1, Histone-lysine N-methyltransferase NSD2; test: Inhibition of human MMSET (973 to 1203 residues) expressed in Escherichia coli BL21 (DE3) using S-adenosyl-methionine as substrate incubated for 60 mins by AlphaScreen assay
[11] = target: Histone-lysine N-methyltransferase EZH2 (Homo sapiens, UniProt Q15910); test: Inhibition of EZH2 (unknown origin) using SAM as substrate preincubated for 10 mins followed by substrate addition and measured after 4 hrs by HTRF analysis
[12] = target: T1, Histone-lysine N-methyltransferase NSD2; test: Competitive inhibition of NSD2 (unknown origin) using SAM as substrate

Histone-lysine N-methyltransferase NSD3, sequence (Q9BZ95 whole entry, the tested form may be a part): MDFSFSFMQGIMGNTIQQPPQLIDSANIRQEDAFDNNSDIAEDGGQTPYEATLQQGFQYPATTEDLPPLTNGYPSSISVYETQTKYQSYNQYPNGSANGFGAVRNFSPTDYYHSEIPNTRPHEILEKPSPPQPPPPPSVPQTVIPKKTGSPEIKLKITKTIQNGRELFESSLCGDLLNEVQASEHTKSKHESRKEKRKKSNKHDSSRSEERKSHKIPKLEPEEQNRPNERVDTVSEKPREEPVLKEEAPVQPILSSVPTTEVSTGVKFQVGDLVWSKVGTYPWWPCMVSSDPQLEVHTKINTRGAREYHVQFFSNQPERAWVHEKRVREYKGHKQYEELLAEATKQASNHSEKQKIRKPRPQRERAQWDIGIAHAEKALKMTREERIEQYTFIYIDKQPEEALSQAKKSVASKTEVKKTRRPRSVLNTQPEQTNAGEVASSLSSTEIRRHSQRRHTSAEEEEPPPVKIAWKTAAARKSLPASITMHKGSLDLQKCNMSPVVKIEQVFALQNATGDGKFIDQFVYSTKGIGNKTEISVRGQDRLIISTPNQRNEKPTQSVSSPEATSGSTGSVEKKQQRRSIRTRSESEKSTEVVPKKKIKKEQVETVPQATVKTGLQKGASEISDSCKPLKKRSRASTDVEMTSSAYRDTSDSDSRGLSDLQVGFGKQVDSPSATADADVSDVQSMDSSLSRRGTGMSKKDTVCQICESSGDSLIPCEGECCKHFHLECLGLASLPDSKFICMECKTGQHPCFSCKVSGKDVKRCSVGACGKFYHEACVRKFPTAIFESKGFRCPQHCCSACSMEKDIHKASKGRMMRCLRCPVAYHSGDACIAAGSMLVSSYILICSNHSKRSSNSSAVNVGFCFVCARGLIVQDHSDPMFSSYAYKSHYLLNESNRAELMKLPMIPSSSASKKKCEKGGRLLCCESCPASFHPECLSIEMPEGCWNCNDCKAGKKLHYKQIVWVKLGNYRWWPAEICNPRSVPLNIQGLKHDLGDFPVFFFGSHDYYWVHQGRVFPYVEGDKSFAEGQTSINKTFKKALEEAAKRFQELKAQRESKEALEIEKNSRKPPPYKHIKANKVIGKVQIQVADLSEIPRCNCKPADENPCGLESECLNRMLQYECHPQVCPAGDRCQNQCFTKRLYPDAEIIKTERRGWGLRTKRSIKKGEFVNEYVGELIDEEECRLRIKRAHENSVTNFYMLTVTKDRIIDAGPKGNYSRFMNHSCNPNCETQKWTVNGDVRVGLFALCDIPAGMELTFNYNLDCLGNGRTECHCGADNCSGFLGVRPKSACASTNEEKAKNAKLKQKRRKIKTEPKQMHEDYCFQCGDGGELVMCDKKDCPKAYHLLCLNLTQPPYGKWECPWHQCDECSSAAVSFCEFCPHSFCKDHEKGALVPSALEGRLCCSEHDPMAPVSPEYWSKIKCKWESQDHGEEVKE
Histone-lysine N-methyltransferase EZH2, sequence (Q15910 whole entry): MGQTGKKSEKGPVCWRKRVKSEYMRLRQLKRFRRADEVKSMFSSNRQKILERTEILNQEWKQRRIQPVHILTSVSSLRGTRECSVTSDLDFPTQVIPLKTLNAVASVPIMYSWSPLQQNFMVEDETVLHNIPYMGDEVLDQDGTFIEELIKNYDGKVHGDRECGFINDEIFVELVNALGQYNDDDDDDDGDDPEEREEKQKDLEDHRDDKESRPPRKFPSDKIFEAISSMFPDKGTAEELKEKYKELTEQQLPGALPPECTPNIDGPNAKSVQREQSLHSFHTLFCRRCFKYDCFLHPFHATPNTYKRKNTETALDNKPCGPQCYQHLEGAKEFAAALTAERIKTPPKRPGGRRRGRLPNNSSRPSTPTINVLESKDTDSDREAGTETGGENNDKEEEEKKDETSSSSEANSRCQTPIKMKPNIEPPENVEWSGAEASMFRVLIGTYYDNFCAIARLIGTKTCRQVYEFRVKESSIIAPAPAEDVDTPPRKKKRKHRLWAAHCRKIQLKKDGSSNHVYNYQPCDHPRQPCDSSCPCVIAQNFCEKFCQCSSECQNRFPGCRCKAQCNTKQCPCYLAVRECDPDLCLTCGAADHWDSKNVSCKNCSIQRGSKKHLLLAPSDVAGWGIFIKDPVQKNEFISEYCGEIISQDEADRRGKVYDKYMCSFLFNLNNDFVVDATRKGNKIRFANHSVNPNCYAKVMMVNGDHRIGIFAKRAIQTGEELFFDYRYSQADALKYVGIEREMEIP
Histone-lysine N-methyltransferase, H3 lysine-36 specific, sequence (Q96L73 whole entry): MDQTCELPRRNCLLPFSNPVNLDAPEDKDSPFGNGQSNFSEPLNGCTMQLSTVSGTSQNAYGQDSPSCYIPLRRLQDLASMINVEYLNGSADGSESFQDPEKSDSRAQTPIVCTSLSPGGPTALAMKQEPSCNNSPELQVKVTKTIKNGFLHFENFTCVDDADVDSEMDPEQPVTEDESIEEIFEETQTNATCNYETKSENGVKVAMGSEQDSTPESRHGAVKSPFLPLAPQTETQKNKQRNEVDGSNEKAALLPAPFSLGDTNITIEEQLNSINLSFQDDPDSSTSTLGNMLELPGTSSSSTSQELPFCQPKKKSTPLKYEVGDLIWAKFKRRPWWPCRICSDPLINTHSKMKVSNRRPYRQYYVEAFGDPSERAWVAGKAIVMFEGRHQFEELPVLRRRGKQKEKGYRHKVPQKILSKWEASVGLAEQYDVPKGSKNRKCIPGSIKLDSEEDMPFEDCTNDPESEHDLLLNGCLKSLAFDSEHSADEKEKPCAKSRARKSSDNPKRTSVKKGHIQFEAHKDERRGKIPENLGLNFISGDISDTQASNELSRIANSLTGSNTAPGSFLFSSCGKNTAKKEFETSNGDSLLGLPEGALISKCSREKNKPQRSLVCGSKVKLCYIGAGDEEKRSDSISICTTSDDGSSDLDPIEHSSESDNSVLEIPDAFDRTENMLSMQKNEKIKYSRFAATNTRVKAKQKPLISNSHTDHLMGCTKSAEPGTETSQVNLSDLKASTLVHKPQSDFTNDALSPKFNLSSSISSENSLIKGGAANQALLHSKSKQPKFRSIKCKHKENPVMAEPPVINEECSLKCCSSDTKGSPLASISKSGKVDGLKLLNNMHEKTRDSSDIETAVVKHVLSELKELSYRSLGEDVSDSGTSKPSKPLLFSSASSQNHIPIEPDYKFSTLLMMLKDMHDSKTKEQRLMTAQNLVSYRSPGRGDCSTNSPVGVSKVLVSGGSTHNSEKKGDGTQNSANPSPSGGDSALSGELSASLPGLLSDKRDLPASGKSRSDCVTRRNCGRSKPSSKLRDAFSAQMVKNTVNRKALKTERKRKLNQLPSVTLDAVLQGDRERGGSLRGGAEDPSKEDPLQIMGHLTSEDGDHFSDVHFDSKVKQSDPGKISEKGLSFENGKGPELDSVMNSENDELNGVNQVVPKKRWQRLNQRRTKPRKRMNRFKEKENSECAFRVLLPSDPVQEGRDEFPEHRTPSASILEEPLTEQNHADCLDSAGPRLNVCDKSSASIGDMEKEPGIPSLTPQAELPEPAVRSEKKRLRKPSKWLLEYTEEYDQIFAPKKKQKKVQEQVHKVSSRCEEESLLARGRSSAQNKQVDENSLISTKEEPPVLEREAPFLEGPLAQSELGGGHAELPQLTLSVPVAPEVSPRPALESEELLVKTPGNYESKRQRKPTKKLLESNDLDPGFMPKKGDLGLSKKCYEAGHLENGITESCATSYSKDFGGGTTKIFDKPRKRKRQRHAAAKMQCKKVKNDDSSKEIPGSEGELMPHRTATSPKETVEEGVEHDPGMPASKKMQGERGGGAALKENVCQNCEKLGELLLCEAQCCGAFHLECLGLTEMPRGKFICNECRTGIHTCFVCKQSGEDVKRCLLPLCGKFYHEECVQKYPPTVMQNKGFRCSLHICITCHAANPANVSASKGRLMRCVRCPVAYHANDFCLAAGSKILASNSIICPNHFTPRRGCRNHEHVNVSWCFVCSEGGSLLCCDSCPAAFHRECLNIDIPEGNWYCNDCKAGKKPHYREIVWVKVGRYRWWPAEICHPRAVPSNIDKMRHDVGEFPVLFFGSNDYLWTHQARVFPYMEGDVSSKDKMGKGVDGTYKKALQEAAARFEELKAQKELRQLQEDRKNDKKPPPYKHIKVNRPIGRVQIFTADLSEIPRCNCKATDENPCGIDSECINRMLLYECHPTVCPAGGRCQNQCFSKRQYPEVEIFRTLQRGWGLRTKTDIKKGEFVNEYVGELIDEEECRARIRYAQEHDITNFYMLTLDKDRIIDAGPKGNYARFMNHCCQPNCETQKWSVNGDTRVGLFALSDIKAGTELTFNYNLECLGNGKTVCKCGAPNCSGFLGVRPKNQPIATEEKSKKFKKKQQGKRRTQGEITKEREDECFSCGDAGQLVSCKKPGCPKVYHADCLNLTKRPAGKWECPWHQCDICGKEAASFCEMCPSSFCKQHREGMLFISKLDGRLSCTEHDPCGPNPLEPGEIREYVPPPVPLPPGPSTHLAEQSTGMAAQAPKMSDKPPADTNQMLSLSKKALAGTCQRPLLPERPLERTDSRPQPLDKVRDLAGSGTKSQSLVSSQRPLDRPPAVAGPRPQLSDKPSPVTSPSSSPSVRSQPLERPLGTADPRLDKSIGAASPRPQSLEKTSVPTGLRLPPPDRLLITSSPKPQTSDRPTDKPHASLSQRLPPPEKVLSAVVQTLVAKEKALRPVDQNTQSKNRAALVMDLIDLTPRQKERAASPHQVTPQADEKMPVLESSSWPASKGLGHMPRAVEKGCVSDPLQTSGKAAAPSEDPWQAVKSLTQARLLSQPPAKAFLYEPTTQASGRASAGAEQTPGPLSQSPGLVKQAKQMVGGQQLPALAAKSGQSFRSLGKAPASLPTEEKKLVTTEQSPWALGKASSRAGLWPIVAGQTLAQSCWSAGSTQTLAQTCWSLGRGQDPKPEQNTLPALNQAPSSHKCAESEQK

`O=C1C(NC23CC(NC(=O)C4CC4(F)F)(C2)C3)=C(Cl)C(=O)c2ncccc21` (configuration not stated) gave an IC50 [1] of 1.46 µM.

For `O=C1C(NCCN2CCOCC2)=C(Cl)C(=O)c2ncccc21`, the IC50 [1] was 0.49 µM.

In the case of `O=C1C(NCCC2(O)CCN(C(=O)C3CC3(F)F)CC2)=C(Cl)C(=O)c2ncccc21` (configuration not stated), the IC50 [1] is reported as 1.28 µM.

For `C[C@@](O)(C(=O)N1CCC(O)(CCNC2=C(Cl)C(=O)c3ncccc3C2=O)CC1)C(F)(F)F`, the IC50 [1] was 0.99 µM.

`C[C@@](O)(C(=O)N1CCC(O)(CCNC2=C(Cl)C(=O)c3cccnc3C2=O)CC1)C(F)(F)F` gave an IC50 (KMS-11) of 8.1 µM, a Papp [2] of 17.8 ×10⁻⁶ cm/s and an IC50 [1] of 0.24 µM.

Work on `CC(C)(O)[C@H](F)CNC1=C(Cl)C(=O)c2ncccc2C1=O` yielded an IC50 [1] of 1.31 µM.

Molecule `CC(F)(F)C(=O)N1CCC2(CC1)CN(C1=C(Cl)C(=O)c3ncccc3C1=O)C2` has an IC50 [1] of 3.05 µM.

Molecule `O=C1C(Cl)=C(NC2CCc3ccccc32)C(=O)c2ncccc21` (configuration not stated) has an IC50 (KMS-11) of 2.52 µM, a Papp [2] of 28.8 ×10⁻⁶ cm/s and an IC50 [1] of 0.21 µM.

For `CC(C)(O)[C@H](F)CNC1=C(Cl)C(=O)c2ccc(N3CC(O)C3)nc2C1=O`, the IC50 [1] was > 10 µM.

Work on `CC(F)(F)C(=O)NCCC1CCN(C2=C(Cl)C(=O)c3ncccc3C2=O)CC1` yielded an IC50 [1] of 1.35 µM.

Molecule `O=C1C(Cl)=C(NCCN2CCOCC2)C(=O)c2ncccc21` has a Cmax [3] of 21.1 ng/mL, an IC50 (KMS-11) of 1.43 µM and an IC50 [4] of 0.17 µM. It also gave a half-life [5] of 34.2 min, a Papp [2] of 31.2 ×10⁻⁶ cm/s and an AUC(0-t) at 24 h [6] of 14.5 ng·h/mL. It also gave a Tmax [7] of 19.8 min, an IC50 [8] of 0.15 µM and an IC50 [1] of 0.23 µM. The IC50 [9] was 0.34 µM.

In the case of `CCCN[C@@H](CC[C@H](N)C(=O)O)C[C@H]1O[C@@H](n2cnc3c(N)ncnc32)[C@H](O)[C@@H]1O`, the IC50 [10] is reported as 3.3 µM.

`CC#CC(=O)NC12CC(NC3=C(Cl)C(=O)c4cccnc4C3=O)(C1)C2` showed an IC50 (KMS-11) of 2.21 µM, an IC50 [11] of 1.04 µM and a Papp [2] of 42 ×10⁻⁶ cm/s. For the same molecule, the IC50 [1] was 0.25 µM.

Molecule `C[C@@](O)(C(=O)NC12CC(NC3=CC(=O)c4ncccc4C3=O)(C1)C2)C(F)(F)F` has an IC50 [1] of 1.29 µM.

In the case of `CC#CC(=O)NCCC1CCN(C2=C(Cl)C(=O)c3ncccc3C2=O)CC1`, the IC50 [1] is reported as 0.49 µM.

`CC#CC(=O)NCCC1CCN(C2=C(Cl)C(=O)c3cccnc3C2=O)CC1` showed an IC50 [1] of 1.71 µM.

In the case of `NNc1nc2ccccc2nc1S`, the IC50 [12] is reported as < 3 µM.

Work on `CC(F)(F)C(=O)NCCC1CCN(C2=C(Cl)C(=O)c3cccnc3C2=O)CC1` yielded an IC50 [1] of 2.34 µM.

For `CC(C)(O)[C@H](F)CNC1=C(Cl)C(=O)c2ccc(N3C[C@@H](O)[C@H](O)C3)nc2C1=O`, the IC50 [1] was 1.22 µM.

Work on `CC(C)(O)[C@H](F)CNC1=C(Cl)C(=O)c2ccc(Cl)nc2C1=O` yielded an IC50 (KMS-11) of 6.07 µM, a Papp [2] of 29 ×10⁻⁶ cm/s and an IC50 [1] of 0.25 µM.

Work on `CC(F)(F)C(=O)N1CCC2(CC1)CN(C1=C(Cl)C(=O)c3cccnc3C1=O)C2` yielded an IC50 [1] of 0.33 µM.

`CC(F)(F)C(=O)NC12CC(NC3=C(Cl)C(=O)c4cccnc4C3=O)(C1)C2` showed an IC50 (KMS-11) of 2.4 µM, a Papp [2] of 44.4 ×10⁻⁶ cm/s and an IC50 [1] of 0.3 µM.
